biological target: Toll-like receptor 7 (Homo sapiens (Human), UniProt Q9NYK1); test: Toll-like receptor 7 in vitro receptor binding activity screen (HEK-blue hTLR7 cell, alkaline phosphatase/Quanti-Blue readout); assay type: cell-based; settings: HEK-blue hTLR7 cell, 24 h; read-out: TLR7 EC50
Procedure: Toll-Like Receptor 7 and Toll-Like Receptor 8 In Vitro Receptor Binding Activity Screen
HEK-blue hTLR7 cell and HEK-blue hTLR8 cell (available from InvivoGen)
1. Preparation of 96-well compound plate:
The compounds were gradient diluted with DMSO in 3-fold using liquid work station POD starting at a concentration of 10 mmol/L and 10 points were diluted (2nd column to 11th column, and each point was duplicated). At 12th column, 1 μL of 5 mg/mL positive compound R848 was added as positive control; and at 1st column, 1 μL of DMSO was added as negative control. Each well contained 1 μL of DMSO.
2. The cells in culture flask were collected and the cell density was diluted to 250,000 cells/mL.
3. 200 μL (50,000 cells/well) of cell suspension was added into prepared compound plate and the final concentration of DMSO in each well was 0.5%.
4. The culture plates containing cells and the compounds were incubated in CO2 incubator for 24 h at 37° C., 5% CO2.
5. After 24 h incubation, 20 μL of supernatant was removed from each well to a 96-well transparent assay plate. To each well of the assay plate was added 180 μL of Quanti-Blue reagent and the plate was incubated in an incubator at 37° C., 5% CO2 for 1 h.
6. After 1 h, the content of alkaline phosphatase in 20 μL of supernatant was determined using Microplate Reader OD650.
7. EC50 of each compound was obtained with Prism software.

Sequence of Toll-like receptor 7 (Q9NYK1 27-1049): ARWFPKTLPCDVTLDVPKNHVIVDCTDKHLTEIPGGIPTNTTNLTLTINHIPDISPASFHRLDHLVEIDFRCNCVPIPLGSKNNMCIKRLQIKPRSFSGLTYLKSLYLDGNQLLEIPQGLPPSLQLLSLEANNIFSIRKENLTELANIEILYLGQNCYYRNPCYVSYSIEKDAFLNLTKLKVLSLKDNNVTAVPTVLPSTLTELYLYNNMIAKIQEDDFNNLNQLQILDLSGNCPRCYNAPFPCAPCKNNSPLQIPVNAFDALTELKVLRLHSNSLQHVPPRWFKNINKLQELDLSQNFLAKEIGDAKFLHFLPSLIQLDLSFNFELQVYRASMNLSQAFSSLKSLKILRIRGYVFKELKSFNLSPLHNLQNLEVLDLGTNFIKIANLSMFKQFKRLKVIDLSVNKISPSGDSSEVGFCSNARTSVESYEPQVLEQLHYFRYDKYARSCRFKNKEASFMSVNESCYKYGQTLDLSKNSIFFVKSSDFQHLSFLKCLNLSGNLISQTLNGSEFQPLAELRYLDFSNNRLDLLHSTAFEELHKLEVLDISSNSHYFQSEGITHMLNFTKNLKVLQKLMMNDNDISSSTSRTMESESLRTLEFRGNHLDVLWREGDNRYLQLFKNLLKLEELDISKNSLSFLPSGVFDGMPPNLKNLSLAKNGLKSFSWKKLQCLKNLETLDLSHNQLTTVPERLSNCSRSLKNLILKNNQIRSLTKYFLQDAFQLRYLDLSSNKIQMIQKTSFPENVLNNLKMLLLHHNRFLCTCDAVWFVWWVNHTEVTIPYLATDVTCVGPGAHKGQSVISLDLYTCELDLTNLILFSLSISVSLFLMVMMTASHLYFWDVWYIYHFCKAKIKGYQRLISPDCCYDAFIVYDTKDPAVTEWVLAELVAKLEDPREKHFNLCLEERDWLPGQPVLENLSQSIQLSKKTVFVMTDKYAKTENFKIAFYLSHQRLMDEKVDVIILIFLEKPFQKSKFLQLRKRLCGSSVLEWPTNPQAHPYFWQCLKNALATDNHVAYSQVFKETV

Q: With `CCCCOc1nc(N)c2[nH]cc(Cc3cccc(CN4CCN(C)CC4)c3)c2n1` [Example 1, 2-butoxy-7-(3-((4-methylpiperazine-1-yl)methyl)benzyl)-5H-pyrrolo[3,2-d]pyrimidine-4-amine] as the molecule, how does the EC50 read?
A: 1 to 50 µM

Q: For `CCCCOc1nc(N)c2[nH]cc(Cc3cccc(CN4CCOCC4)c3)c2n1` [Example 2, 2-butoxy-7-(3-(morpholinomethyl)benzyl)-5H-pyrrolo[3,2-d]pyrimidine-4-amine], which EC50 is on record?
A: 1 to 50 µM

Q: How did the EC50 turn out when `CCCCOc1nc(N)c2[nH]cc(Cc3cccc(CN)c3)c2n1` [Example 3, 7-(3-(aminomethyl)benzyl)-2-butoxy-5H-pyrrolo[3,2-d]pyrimidine-4-amine] was run?
A: 1 to 50 µM

Q: For `CCCCOc1nc(N)c2[nH]cc(Cc3ccc(CN4CCC(F)(F)C4)cc3)c2n1` [Example 5], which EC50 is on record?
A: 1 to 50 µM

Q: For `CCCCOc1nc(N)c2[nH]cc(Cc3ccc(CN4CCC(F)C4)cc3)c2n1` (stereo not shown) [Example 6, 2-butoxy-7-(4-((3-fluoropyrrolidine-1-yl)methyl)benzyl)-5H-pyrrolo[3,2-d]pyrimidine-4-amine], which EC50 is on record?
A: 0.1 to 1 µM

Q: How did the EC50 turn out when `CCCCOc1nc(N)c2[nH]cc(Cc3ccc(CN4CCC(O)C4)cc3)c2n1` (stereo not shown) [Example 7, 1-(4-((4-amino-2-butoxy-5H-pyrrolo[3,2-d]pyrimidine-7-1)methyl)benzyl)pyrrolidine-3-ol] was run?
A: 0.1 to 1 µM

Q: For `CCCCOc1nc(N)c2[nH]cc(Cc3ccc(CN4CCCCC4)cc3)c2n1` [Example 8, 2-butoxy-7-(4-(piperidine-1-ylmethyl)benzyl)-5H-pyrrolo[3,2-d]pyrimidine-4-amine], which EC50 is on record?
A: 0.1 to 1 µM

Q: With `CCCCOc1nc(N)c2[nH]cc(Cc3ccc(CN4CCOCC4)cc3)c2n1` [Example 9, 2-butoxy-7-(4-(morpholinomethyl)benzyl)-5H-pyrrolo[3,2-d]pyrimidine-4-amine] as the molecule, how does the EC50 read?
A: 1 to 50 µM

Q: Which EC50 does the source give for `CCCCOc1nc(N)c2[nH]cc(Cc3ccc(CN4CCN(C)CC4)cc3)c2n1` [Example 10, 2-butoxy-7-(4-((4-methylpiperazine-1-yl)methyl)benzyl)-5H-pyrrolo[3,2-d]pyrimidine-4-amine] here?
A: 1 to 50 µM

Q: How did the EC50 turn out when `CCCCOc1nc(N)c2[nH]cc(Cc3ccc(CN(C)C)cc3)c2n1` [Example 11, 2-butoxy-7-(4-((dimethylamino)methyl)benzyl)-5H-pyrrolo[3,2-d]pyrimidine-4-amine] was run?
A: 0.1 to 1 µM

Q: For `CCCCOc1nc(N)c2[nH]cc(Cc3ccc(CN(CC)CC)cc3)c2n1` [Example 12, 2-butoxy-7-(4-((diethylamino)methyl)benzyl)-5H-pyrrolo[3,2-d]pyrimidine-4-amine], which EC50 is on record?
A: 0.1 to 1 µM

Q: For `CCCCOc1nc(N)c2[nH]cc(Cc3ccc(CN(CCC)CCC)cc3)c2n1` [Example 13, 2-butoxy-7-(4-((dipropylamino)methyl)benzyl)-5H-pyrrolo[3,2-d]pyrimidine-4-amine], which EC50 is on record?
A: 0.1 to 1 µM

Q: Which EC50 does the source give for `CCCCOc1nc(N)c2[nH]cc(Cc3ccc(CN4CCC4)cc3)c2n1` [Example 14, 7-(4-(azetidin-1-ylmethyl)benzyl)-2-butoxy-5H-pyrrolo[3,2-d]pyrimidine-4-amine] here?
A: 0.1 to 1 µM

Q: Which EC50 does the source give for `CCCCOc1nc(N)c2[nH]cc(Cc3ccc(CN4CC(OC)C4)cc3)c2n1` [Example 15, 2-butoxy-7-(4-((3-methoxylazetidin-1-yl)methyl)benzyl)-5H-pyrrolo[3,2-d]pyrimidine-4-amine] here?
A: 0.1 to 1 µM

Q: `CCCCOc1nc(N)c2[nH]cc(Cc3ccc(CN4CCCN(C)CC4)cc3)c2n1` [Example 16, 2-butoxy-7-(4-((4-methyl-1,4-diazepan-1-yl)methyl)benzyl)-5H-pyrrolo[3,2-d]pyrimidine-4-amine] was tested. Which EC50 did it give?
A: 0.1 to 1 µM

Q: How did the EC50 turn out when `CCCCOc1nc(N)c2[nH]cc(Cc3ccc(CN4CC(C)OC(C)C4)cc3)c2n1` (stereo not shown) [Example 17, 2-butoxy-7-(4-((2,6-dimethylmorpholinyl)methyl)benzyl)-5H-pyrrolo[3,2-d]pyrimidine-4-amine] was run?
A: 0.1 to 1 µM

Q: With `CCCCOc1nc(N)c2[nH]cc(Cc3ccc(CN4C[C@@H]5C[C@H]4CO5)cc3)c2n1` [Example 18, 7-(4-((1 S,4S)-2-oxa-5-azabicyclo[2.2.1]heptane-5-ylmethyl)benzyl)-2-butoxy-5H-pyrrolo[3,2-d]pyrimidine-4-amine] as the molecule, how does the EC50 read?
A: 0.1 to 1 µM

Q: With `CCCCOc1nc(N)c2[nH]cc(Cc3ccc(CN4CCC(OC)CC4)cc3)c2n1` [Example 19, 2-butoxy-7-(4-((4-methoxylpiperidine-1-yl)methyl)benzyl)-5H-pyrrolo[3,2-d]pyrimidine-4-amine] as the molecule, how does the EC50 read?
A: 0.1 to 1 µM

Q: For `CCCCOc1nc(N)c2[nH]cc(Cc3ccc(CN4CCN(C(C)C)CC4)cc3)c2n1` [Example 20, 2-butoxy-7-(4-((4-isopropylpiperazine-1-yl)methyl)benzyl)-5H-pyrrolo[3,2-d]pyrimidine-4-amine], which EC50 is on record?
A: 0.1 to 1 µM

Q: With `CCCCOc1nc(N)c2[nH]cc(Cc3cccc(CCN4CCCC4)c3)c2n1` [Example 23, 2-butoxy-7-(3-(2-(pyrrolidine-1-yl)ethyl)benzyl)-5H-pyrrolo[3,2-d]pyrimidine-4-amine] as the molecule, how does the EC50 read?
A: 1 to 50 µM

Q: How did the EC50 turn out when `CCCCOc1nc(N)c2[nH]cc(Cc3ccc(C(C)N4CCCC4)cc3)c2n1` (stereo not shown) [Example 24, 2-butoxy-7-(4-(1-(pyrrolidine-1-yl)ethyl)benzyl)-5H-pyrrolo[3,2-d]pyrimidine-4-amine] was run?
A: 0.1 to 1 µM

Q: With `CCCCOc1nc(N)c2[nH]cc(Cc3ccc(C4CCN(C)CC4)cc3)c2n1` [Example 25, 2-butoxy-7-(4-(1-methylpiperidine-4-yl)benzyl)-5H-pyrrolo[3,2-d]pyrimidine-4-amine] as the molecule, how does the EC50 read?
A: 0.001 to 0.1 µM

Q: `CCCCOc1nc(N)c2[nH]cc(Cc3ccc(C4CCCN4C)cc3)c2n1` (stereo not shown) [Example 26, 2-butoxy-7-(4-(1-methylpyrrolidine-2-yl)benzyl)-5H-pyrrolo[3,2-d]pyrimidine-4-amine] was tested. Which EC50 did it give?
A: 0.1 to 1 µM

Q: Which EC50 does the source give for `CCCCOc1nc(N)c2[nH]cc(Cc3ccc(N4CCN(C)CC4=O)cc3)c2n1` [Example 27, 1-(4-((4-amino-2-butoxy-5H-pyrrolo[3,2-d]pyrimidine-7-yl)methyl)phenyl)-4-methylpiperazine-2-one] here?
A: 0.1 to 1 µM

Q: For `CCCCOc1nc(N)c2[nH]cc(Cc3ccc4c(c3)CCNC4)c2n1` [Example 32, 2-butoxy-7-((1,2,3,4-tetrahydroisoquinoline-6-yl)methyl)-5H-pyrrolo[3,2-d]pyrimidine-4-amine], which EC50 is on record?
A: 0.1 to 1 µM

Q: With `CCCCOc1nc(N)c2[nH]cc(Cc3ccc4c(c3)CCN(C)C4)c2n1` [Example 33, 2-butoxy-7-((2-methyl-1,2,3,4-tetrahydroisoquinoline-6-yl)methyl)-5H-pyrrolo[3,2-d]pyrimidine-4-amine] as the molecule, how does the EC50 read?
A: 0.1 to 1 µM

Q: How did the EC50 turn out when `CCCCOc1nc(N)c2[nH]cc(Cc3ccc4c(c3)CCN(CC)C4)c2n1` [Example 34, 2-butoxy-7-((2-ethyl-1,2,3,4-tetrahydroisoquinoline-6-yl)methyl)-5H-pyrrolo[3,2-d]pyrimidine-4-amine] was run?
A: 0.1 to 1 µM

Q: How did the EC50 turn out when `COCCOc1nc(N)c2[nH]cc(Cc3ccccc3)c2n1` [Example 35, 7-benzyl-2-(2-methoxylethoxyl)-5H-pyrrolo[3,2-d]pyrimidine-4-amine] was run?
A: 1 to 50 µM

Q: `COCCOc1nc(N)c2[nH]cc(Cc3ccc(C)nc3)c2n1` [Example 36, 2-(2-methoxylethoxyl)-7-((6-methylpyridine-3-yl)methyl)-5H-pyrrolo[3,2-d]pyrimidine-4-amine] was tested. Which EC50 did it give?
A: 1 to 50 µM

Q: How did the EC50 turn out when `COCCOc1nc(N)c2[nH]cc(Cc3ccc(Cl)cn3)c2n1` [Example 37, 7-((5-chloropyridine-2-yl)methyl)-2-(2-methoxylethoxyl)-5H-pyrrolo[3,2-d]pyrimidine-4-amine] was run?
A: 1 to 50 µM

Q: For `COCCOc1nc(N)c2[nH]cc(Cc3ccc(CN4CCCC4)nc3)c2n1` [Example 38, 2-(2-methoxylethoxyl-)-7-((6-(pyrrolidine-1-ylmethyl)pyridine-3-yl)methyl)-5H-pyrrolo[3,2-d]pyrimidine-4-amine], which EC50 is on record?
A: 0.1 to 1 µM

Q: Which EC50 does the source give for `COCCOc1nc(N)c2[nH]cc(Cc3ccc(N4CCN(C)CC4=O)cc3)c2n1` [Example 39, 1-(4-((4-amino-2-(2-methoxylethoxyl)-5H-pyrrolo[3,2-d]pyrimidine-7-yl)methyl)phenyl)-4-methylpiperazine-2-one] here?
A: 0.1 to 1 µM

Q: With `CCCCOc1nc(N)c2[nH]cc(Cc3ccc(CN4CCCC4)cn3)c2n1` [Example 40, 2-butoxy-7-((5-(pyrrolidine-1-ylmethyl)pyridine-2-yl)methyl)-5H-pyrrolo[3,2-d]pyrimidine-4-amine] as the molecule, how does the EC50 read?
A: 0.1 to 1 µM

Q: `CCCCOc1nc(N)c2[nH]c(C#N)c(Cc3ccc(CN4CCCC4)nc3)c2n1` [Example 41, 4-amino-2-butoxy-7-((6-(pyrrolidine-1-ylmethyl)pyridine-3-yl)methyl)-5H-pyrrolo[3,2-d]pyrimidine-6-carbonitrile] was tested. Which EC50 did it give?
A: 0.001 to 0.1 µM

Q: With `CCCCOc1nc(N)c2[nH]c(C#N)c(Cc3ccc(CN4CCOCC4)cc3)c2n1` [Example 43, 4-amino-2-butoxy-7-(4-(morpholinomethyl)benzyl)-5H-pyrrolo[3,2-d]pyrimidine-6-carbonitrile] as the molecule, how does the EC50 read?
A: 0.001 to 0.1 µM

Q: With `CCCCOc1nc(N)c2[nH]c(C#N)c(Cc3ccc(CN4CCN(C)CC4)cc3)c2n1` [Example 44, 4-amino-2-butoxy-7-(4-((4-methylpiperazine-1-yl)methyl)benzyl)-5H-pyrrolo[3,2-d]pyrimidine-6-carbonitrile] as the molecule, how does the EC50 read?
A: 0.001 to 0.1 µM

Q: With `CCCCOc1nc(N)c2[nH]c(C(N)=O)c(Cc3ccc(CN4CCCC4)cc3)c2n1` [Example 45, 4-amino-2-butoxy-7-(4-(pyrrolidine-1-ylmethyl)benzyl)-5H-pyrrolo[3,2-d]pyrimidine-6-formamide] as the molecule, how does the EC50 read?
A: 0.1 to 1 µM
